PMC11052071, “Novel JAK Inhibitors to Reduce Graft-Versus-Host Disease after Allogeneic Hematopoietic Cell Transplantation in a Preclinical Mouse Model” (Molecules, 2024)

Experiments:
[1] = target: JAK2 (Homo sapiens, UniProt O60674); test: Z'-LYTE enzyme activity assay (SelectScreen Kinase Profiling), JAK2
[2] = test system: CXCR3; test: CXCR3 expression in activated primary murine T cells (flow cytometry); format: cell-based, B6 mice; conditions: anti-CD3/CD28 activated, 3 days, dose-dependent (0.32-1000 nM)
Description: To identify the top candidates whose effects on GvHD will be further tested in vivo, we next screened the WU derivatives by evaluating their functional inhibitory activity on the expression of CXCR3 in primary murine T cells activated by anti-CD3/CD28 beads. CXCR3 is a chemokine receptor and surrogate marker of IFNGR-JAK1/JAK2 signaling.
Figure 3 Inhibitory effect of WU derivatives on the expression of CXCR3 compared to commercially available JAK inhibitors in primary murine T cells. Primary murine T cells were isolated from B6 mice and treated with WU derivatives or known JAK inhibitors (in the order of doses of each drug from the left: 0, 0.32, 1.6, 8, 40, 200, 1000 nM) in the presence of anti-CD3/CD28 activators. After 3 days, the expression of CXCR3 on (A) CD3, (B) CD4, and (C) CD8 T cells was determined by flow cytometry.
T cells from in vitro primary murine T cell culture, fresh peripheral blood, or whole splenocytes were analyzed according to cell surface and intracellular markers. Surface markers were directly stained with flow antibodies for 20 min at 4 °C. For intracellular staining (FOXP3 and T-bet), cells were fixed and permeabilized after surface staining using appropriate buffers (One-step intracellular nuclear protein staining protocol, eBioscience, San Diego, CA, USA) and stained with flow antibodies. The antibodies used for flow cytometric analyses for mouse cells were as follows: FOXP3, T-BET, and CD183 (eBioscience, San Diego, CA, USA); CD3, H2-Kb, H2-Kd, CD4, B220, CD11b, CD11c, Ly6C, and DEC205 (BioLegend, San Diego, CA); and CD8, CD45.2, CD80, and Ly6G (BD Pharmingen, San Jose, CA, USA). All cells were run on a ZE5 Cell Analyzer (BD Biosciences, Mountain View, CA, USA) or Attune® NxT (Thermofisher Scientific, Waltham, MA, USA) and analyzed with the FlowJo software, version 10.9.0 (FlowJo LLC., Ashland, OR, USA). […]

[3] = test system: GvHD; test: Preclinical mouse model of allo-HCT (GvHD); format: in vivo, Balb/c recipient mice; conditions: for % of recipient and donor BM-derived APCs in spleens / % of CD80-expressing donor-derived APCs in spleens / % of Tregs in the spleens: 20 mg/kg s.c., day 6 after allo-HCT; for % of recipient and donor BM-derived APCs in spleens: vs control
Description: To determine the potential of WU4 and WU8 in preventing GvHD, we performed allo-HCT in which 5 × 10^6 T cell-depleted bone marrow (TCD-BM; CD45.1+) and 5 × 10^5 splenic pan T cells (CD45.2+) obtained from B6 mice were transplanted into lethally irradiated (900 cGy on day −1) Balb/c allogeneic recipient mice on day 0. […]. […] Among monocyte subsets, we only considered classical (LyG6^−CD11b^+Ly6C^high) and intermediate monocytes (LyG6^−CD11b^+Ly6C^middle) as APCs, excluding non-classical monocytes (LyG6^−CD11b^+Ly6C^low) due to their anti-inflammatory function, which downregulates antigen presentation during inflammation. […]
Figure 5 In vivo administration of WU4 and WU8 reduces GvHD by increasing % of Tregs while suppressing % of APCs and costimulatory proteins on APCs after allo-HCT. Allo-HCT was performed as follows: 5 × 10^6 TCD-BM (CD45.1+) and 5 × 10^5 splenic T cells (CD45.2+) obtained from B6 mice were transplanted on day 0 into lethally irradiated (900 cGy on day −1) Balb/c allogeneic recipient mice. TCD-BM-only group served as a no-GvHD control. […] (A,B) The mice were monitored for survival and GvHD signs. (C–F) Whole splenocytes were analyzed for % of Tregs, recipient/BM-derived APCs, and CD80-expressing APCs on day 6 after allo-HCT. LyG6^−CD11b^+Ly6C^high and LyG6^−CD11b^+Ly6C^middle served as classical and intermediate monocyte subsets. NT: neutrophils. * p < 0.05, ** p < 0.01, and *** p < 0.001. All error bars are represented as mean ± standard deviation.
Allo-HCT was performed as previously described. Briefly, BALB/c mice were used as recipients and received 9 Gy total body irradiation on day −1, then were transplanted with 5 × 10^6 T cell-depleted bone marrow (TCD-BM) cells from B6 (CD45.1+) mice along with 0.5 × 10^6 splenic T cells from B6 (CD45.2+) mice on day 0. Mouse TCD-BM and splenic T cells were prepared using an EasySep mouse CD90.2 positive selection kit II and an EasySep mouse T cell isolation kit ([…] Technologies, Cambridge, MA, USA), respectively.
GvHD clinical scores were assessed twice per week by a scoring system incorporating five clinical criteria: weight loss (diarrhea scored 1 regardless of weight change), posture (hunching), mobility, fur texture, and skin integrity, as previously described. Individual mice were scored from 0 to 2 for each criterion and were sacrificed with GvHD scores of 6 or above, following our approved animal protocol.
T cells from in vitro primary murine T cell culture, fresh peripheral blood, or whole splenocytes were analyzed according to cell surface and intracellular markers. Surface markers were directly stained with flow antibodies for 20 min at 4 °C. For intracellular staining (FOXP3 and T-bet), cells were fixed and permeabilized after surface staining using appropriate buffers (One-step intracellular nuclear protein staining protocol, eBioscience, San Diego, CA, USA) and stained with flow antibodies. The antibodies used for flow cytometric analyses for mouse cells were as follows: FOXP3, T-BET, and CD183 (eBioscience, San Diego, CA, USA); CD3, H2-Kb, H2-Kd, CD4, B220, CD11b, CD11c, Ly6C, and DEC205 (BioLegend, San Diego, CA); and CD8, CD45.2, CD80, and Ly6G (BD Pharmingen, San Jose, CA, USA). All cells were run on a ZE5 Cell Analyzer (BD Biosciences, Mountain View, CA, USA) or Attune® NxT (Thermofisher Scientific, Waltham, MA, USA) and analyzed with the FlowJo software, version 10.9.0 (FlowJo LLC., Ashland, OR, USA).

[4] = target: JAK1 (Homo sapiens, UniProt P23458); test: Z'-LYTE enzyme activity assay (SelectScreen Kinase Profiling), JAK1
JAK1, sequence (P23458 whole entry): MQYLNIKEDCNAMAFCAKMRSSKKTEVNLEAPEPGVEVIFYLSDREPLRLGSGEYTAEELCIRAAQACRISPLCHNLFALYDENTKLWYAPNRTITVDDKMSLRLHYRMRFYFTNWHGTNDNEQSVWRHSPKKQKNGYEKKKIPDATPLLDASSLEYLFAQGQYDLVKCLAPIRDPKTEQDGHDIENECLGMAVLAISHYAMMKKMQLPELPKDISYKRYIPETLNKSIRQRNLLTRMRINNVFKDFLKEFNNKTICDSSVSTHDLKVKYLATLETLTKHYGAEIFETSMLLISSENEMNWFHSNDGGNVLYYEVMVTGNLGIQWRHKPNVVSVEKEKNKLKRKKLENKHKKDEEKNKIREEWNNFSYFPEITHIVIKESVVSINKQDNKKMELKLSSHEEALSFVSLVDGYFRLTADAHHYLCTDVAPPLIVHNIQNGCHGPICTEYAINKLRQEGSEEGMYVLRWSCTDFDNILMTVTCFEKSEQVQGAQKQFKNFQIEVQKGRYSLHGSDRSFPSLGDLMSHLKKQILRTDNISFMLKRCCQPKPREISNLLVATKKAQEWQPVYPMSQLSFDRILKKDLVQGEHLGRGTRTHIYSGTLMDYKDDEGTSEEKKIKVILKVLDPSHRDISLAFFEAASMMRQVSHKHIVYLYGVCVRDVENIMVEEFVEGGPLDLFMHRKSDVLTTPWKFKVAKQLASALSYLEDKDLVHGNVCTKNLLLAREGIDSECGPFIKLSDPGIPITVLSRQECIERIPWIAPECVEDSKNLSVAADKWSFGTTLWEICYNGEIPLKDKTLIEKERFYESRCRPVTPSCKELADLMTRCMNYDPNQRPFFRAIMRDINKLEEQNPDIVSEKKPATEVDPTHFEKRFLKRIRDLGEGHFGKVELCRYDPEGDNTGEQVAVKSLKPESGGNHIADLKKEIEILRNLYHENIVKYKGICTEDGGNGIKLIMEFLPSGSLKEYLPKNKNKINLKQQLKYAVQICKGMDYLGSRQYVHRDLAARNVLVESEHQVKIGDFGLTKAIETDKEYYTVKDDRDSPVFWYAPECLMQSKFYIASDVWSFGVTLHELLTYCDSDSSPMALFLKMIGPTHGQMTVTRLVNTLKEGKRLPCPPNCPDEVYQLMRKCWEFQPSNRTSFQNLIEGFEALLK

[5] = target: TYK2 (Homo sapiens, UniProt P29597); test: Z'-LYTE enzyme activity assay (SelectScreen Kinase Profiling), TYK2
TYK2, sequence (P29597 whole entry): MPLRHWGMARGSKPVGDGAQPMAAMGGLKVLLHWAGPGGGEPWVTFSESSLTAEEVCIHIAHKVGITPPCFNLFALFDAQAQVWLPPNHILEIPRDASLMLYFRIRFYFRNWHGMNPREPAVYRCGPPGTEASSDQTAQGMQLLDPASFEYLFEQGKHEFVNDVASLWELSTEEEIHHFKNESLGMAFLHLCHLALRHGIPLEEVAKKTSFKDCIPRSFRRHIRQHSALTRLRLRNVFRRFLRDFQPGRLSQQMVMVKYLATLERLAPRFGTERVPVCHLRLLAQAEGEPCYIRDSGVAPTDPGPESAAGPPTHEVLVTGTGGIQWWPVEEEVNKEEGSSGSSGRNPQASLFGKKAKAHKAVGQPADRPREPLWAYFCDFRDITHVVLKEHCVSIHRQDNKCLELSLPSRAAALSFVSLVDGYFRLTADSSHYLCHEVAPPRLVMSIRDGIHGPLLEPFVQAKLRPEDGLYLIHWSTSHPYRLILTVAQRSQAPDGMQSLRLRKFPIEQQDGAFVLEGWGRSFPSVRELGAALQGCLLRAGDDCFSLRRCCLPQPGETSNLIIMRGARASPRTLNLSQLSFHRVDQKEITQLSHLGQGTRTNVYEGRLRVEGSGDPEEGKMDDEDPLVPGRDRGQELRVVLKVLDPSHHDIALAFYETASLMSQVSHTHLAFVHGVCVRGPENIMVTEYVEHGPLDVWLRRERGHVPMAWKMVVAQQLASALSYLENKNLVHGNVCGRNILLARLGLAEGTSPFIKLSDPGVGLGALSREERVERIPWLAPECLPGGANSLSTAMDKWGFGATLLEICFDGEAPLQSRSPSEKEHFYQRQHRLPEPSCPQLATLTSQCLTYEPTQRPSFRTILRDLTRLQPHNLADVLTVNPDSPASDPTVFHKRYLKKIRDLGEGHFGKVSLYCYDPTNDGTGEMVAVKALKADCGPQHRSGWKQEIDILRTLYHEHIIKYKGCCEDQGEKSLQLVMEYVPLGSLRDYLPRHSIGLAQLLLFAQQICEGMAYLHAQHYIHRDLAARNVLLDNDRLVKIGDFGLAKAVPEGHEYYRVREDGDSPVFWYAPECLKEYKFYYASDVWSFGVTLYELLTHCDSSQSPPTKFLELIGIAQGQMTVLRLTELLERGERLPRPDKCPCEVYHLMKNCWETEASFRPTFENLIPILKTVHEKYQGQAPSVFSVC

[6] = 20 mg/kg s.c. once daily for 3 weeks from day 3, vs vehicle control
[7] = 4 mg/kg s.c. once daily for 3 weeks from day 3, vs vehicle control
[8] = dose not given, compared to WU4

JAK2, sequence (O60674 whole entry): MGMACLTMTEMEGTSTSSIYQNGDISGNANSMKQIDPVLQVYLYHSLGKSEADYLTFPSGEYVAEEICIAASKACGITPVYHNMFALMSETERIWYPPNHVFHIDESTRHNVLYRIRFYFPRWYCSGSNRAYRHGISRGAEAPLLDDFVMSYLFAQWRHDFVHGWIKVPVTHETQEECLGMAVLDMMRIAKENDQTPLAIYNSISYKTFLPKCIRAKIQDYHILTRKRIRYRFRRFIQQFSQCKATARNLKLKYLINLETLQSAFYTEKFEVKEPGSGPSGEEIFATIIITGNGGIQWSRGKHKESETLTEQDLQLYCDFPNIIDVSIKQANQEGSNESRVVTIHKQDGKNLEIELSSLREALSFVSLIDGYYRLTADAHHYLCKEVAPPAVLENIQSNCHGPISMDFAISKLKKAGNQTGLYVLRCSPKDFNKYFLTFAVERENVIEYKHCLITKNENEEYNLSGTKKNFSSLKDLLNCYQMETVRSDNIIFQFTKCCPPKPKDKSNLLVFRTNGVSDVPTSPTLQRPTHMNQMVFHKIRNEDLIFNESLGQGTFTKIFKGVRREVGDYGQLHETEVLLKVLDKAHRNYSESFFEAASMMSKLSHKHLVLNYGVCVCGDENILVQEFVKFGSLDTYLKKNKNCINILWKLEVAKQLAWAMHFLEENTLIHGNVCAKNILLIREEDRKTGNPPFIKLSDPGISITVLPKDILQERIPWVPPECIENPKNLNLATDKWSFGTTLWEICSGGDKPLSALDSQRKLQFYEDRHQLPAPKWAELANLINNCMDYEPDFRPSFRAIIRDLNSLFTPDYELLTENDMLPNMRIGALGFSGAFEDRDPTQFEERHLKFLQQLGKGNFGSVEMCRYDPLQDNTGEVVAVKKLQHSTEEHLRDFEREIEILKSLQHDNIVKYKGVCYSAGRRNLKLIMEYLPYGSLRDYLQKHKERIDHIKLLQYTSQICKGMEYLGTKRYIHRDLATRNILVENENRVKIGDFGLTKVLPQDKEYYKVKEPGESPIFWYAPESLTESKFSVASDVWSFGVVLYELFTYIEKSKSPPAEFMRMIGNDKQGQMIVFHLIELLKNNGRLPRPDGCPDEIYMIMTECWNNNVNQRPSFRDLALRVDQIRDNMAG

CCS(=O)(=O)NC1CC2(C1)CC(CC#N)(n1cc(-c3ncnc4[nH]ccc34)cn1)C2 (stereo not drawn) [WU4] was tested, and the IC50 ([1]; IC50 JAK2, ATP at 1 mM) was 2.26 nM, the IC50 ([1]; IC50 JAK2, ATP at app. Km) was 0.133 nM and the “CXCR3 expression on T cells” value [2] was “significant reductions in CXCR3 expression”. For the same compound, the “clinical GvHD scores” value [3, 6] was “did not significantly improve GvHD”, the overall survival [3, 6] was “failed to provide any survival benefits” and the “% of recipient and donor BM-derived APCs in spleens” value [3] was “reducing the % of donor-derived CD11b+ APCs”. For the same compound, the “% of CD80-expressing donor-derived APCs in spleens” value ([3]; vs vehicle control) was “reducing the % of donor-derived CD11b+ APCs and CD80-expressing B cells”, the “% of Tregs in the spleens” value ([3]; vs vehicle control) was “significantly increasing the % of Tregs” and the IC50 ([4]; IC50 JAK1, ATP at 1 mM) was 0.52 nM. For the same compound, the IC50 ([4]; IC50 JAK1, ATP at app. Km) was 0.453 nM, the IC50 ([5]; IC50 TYK2, ATP at 1 mM) was 1.09 nM and the IC50 ([5]; IC50 TYK2, ATP at app. Km) was 0.417 nM.

N#CCC1(n2cc(-c3ncnc4[nH]ccc34)cn2)CCS(=O)(=O)CC1 [WU8] was tested, and the IC50 ([1]; IC50 JAK2, ATP at 1 mM) was 14.9 nM, the IC50 ([1]; IC50 JAK2, ATP at app. Km) was 0.535 nM and the “CXCR3 expression on T cells” value [2] was “significant reductions in CXCR3 expression”. For the same compound, the “clinical GvHD scores” value [3, 7] was “less GvHD”, the overall survival [3, 7] was “mild trend towards improved survival” and the “clinical GvHD scores” value [3, 6] was “improved clinical GvHD scores”. The overall survival [3, 6] was “significantly increased overall survival”, the “% of recipient and donor BM-derived APCs in spleens” value [3] was “reduced the % of both the residual recipient and donor BM-derived APCs” and the “% of CD80-expressing donor-derived APCs in spleens” value ([3]; vs vehicle control) was “decreased”. The “% of Tregs in the spleens” value ([3]; vs vehicle control) was “trend towards higher frequencies of Tregs”, the IC50 ([4]; IC50 JAK1, ATP at 1 mM) was 7.15 nM and the IC50 ([4]; IC50 JAK1, ATP at app. Km) was 1.07 nM. The IC50 ([5]; IC50 TYK2, ATP at 1 mM) was 49.1 nM and the IC50 ([5]; IC50 TYK2, ATP at app. Km) was 2.84 nM.

For N#CCC1(n2cc(-c3ncnc4[nH]ccc34)cn2)CC2(CC(NS(=O)(=O)C(F)(F)F)C2)C1 (stereo not drawn) [WU6], the IC50 ([1]; IC50 JAK2, ATP at 1 mM) was 6.96 nM, the IC50 ([1]; IC50 JAK2, ATP at app. Km) was 0.347 nM and the “CXCR3 expression on T cells” value [2] was “significantly downregulated”. For the same compound, the “clinical GvHD scores” value [3, 8] was “significantly less clinical GvHD scores”, the overall survival [3, 8] was “improved overall survival” and the “percentage of donor-BM-derived B and T cells in the PB” value ([3]; dose not given, day 27 after allo-HCT, compared to WU4) was “increased percentage of donor-BM-derived B and T cells”. The IC50 ([4]; IC50 JAK1, ATP at 1 mM) was 3.43 nM, the IC50 ([4]; IC50 JAK1, ATP at app. Km) was 0.6 nM and the IC50 ([5]; IC50 TYK2, ATP at 1 mM) was 6.48 nM. It also gave an IC50 ([5]; IC50 TYK2, ATP at app. Km) of 0.766 nM.
